Measured values reported in US20080207683A1, “BIARYL-S[…]-PYRAZOLO-PYRIDINE MODULATORS OF CATHEPSIN S” (priority 2007, published 2008).

biological target: T1, Human CatS (Homo sapiens, UniProt P25774); test: CatS inhibition of hydrolysis of fluorescent substrate Z-Val-Val-Arg-AFC; assay type: biochemical; conditions: not given
T1 construct: made in house; host or cells: Sf9 insect cells (baculovirus vector pFB+HT)
Method: Human CatS was cloned into pFB+HT (from Stratagene clone), expressed in Sf9 cells, and purified over a Ni column. Fractions were concentrated and activated at pH 4.0 for 6 hr and then purified over a thiopropylsepharose column and eluted with 1×TBS, 500 mM NaCl, 1 mM EDTA, 25 mM DTT pH 7.6. Glycerol (50%) was added in a 1:1 (vol/vol) ratio (25% glycerol final) and protein was stored at −80° C. in 5 μL aliquots. […] The increase in fluorescence over time was monitored using λexcitation=400 nm and λemission=505 nm.
In equation 1, v is the initial rate measured in the presence of [I]0, the inhibitor concentration, using an enzyme concentration [E]0. v0 is the initial rate measured in the absence of inhibitor.

T1 sequence (P25774 115-331): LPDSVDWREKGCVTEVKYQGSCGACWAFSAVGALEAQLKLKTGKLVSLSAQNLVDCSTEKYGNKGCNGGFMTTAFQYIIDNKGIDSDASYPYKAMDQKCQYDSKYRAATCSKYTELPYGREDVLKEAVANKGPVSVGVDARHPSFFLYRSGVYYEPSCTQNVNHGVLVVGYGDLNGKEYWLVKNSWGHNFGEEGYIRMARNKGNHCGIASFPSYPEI

SMILES | Ki
COc1ccc(CNC(=O)c2cccc(-c3cc(-c4nn(CCCN5CCCC5)c5c4CN(S(C)(=O)=O)CC5)ccc3Cl)c2)cc1 [Example 15, 2′-Chloro-5′-[5-methanesulfonyl-1-(3-pyrrolidin-1-yl-propyl)-4,5,6,7-tetrahydro-1H-pyrazolo[4,3-c]pyridin-3-yl]-biphenyl-3-carboxylic acid 4-methoxy-benzylamide] | 450 nM
CS(=O)(=O)N1CCc2c(c(-c3ccc(Cl)c(-c4cccc(C(=O)NCc5cc6ccccc6[nH]5)c4)c3)nn2CCCN2CCCC2)C1 [Example 13, 2′-Chloro-5′-[5-methanesulfonyl-1-(3-pyrrolidin-1-yl-propyl)-4,5,6,7-tetrahydro-1H-pyrazolo[4,3-c]pyridin-3-yl]-biphenyl-3-carboxylic acid (1H-indol-2-ylmethyl)-amide] | 330 nM

same assay, conditions: apparent Ki, Morrison equation fit of initial rates; 10 μM Z-Val-Val-Arg-AFC, pH 5.0, 1.5 nM CatS; read-out: CatS Ki^app

SMILES | Ki
CC(=O)N1CCc2c(c(-c3ccc(Cl)c(-c4cccc(C(=O)NC(C)c5nc6cc(C)ccc6[nH]5)c4)c3)nn2CCCN2CCCC2)C1 (stereo not drawn) [Example 39, 5′-[5-Acetyl-1-(3-pyrrolidin-1-yl-propyl)-4,5,6,7-tetrahydro-1H-pyrazolo[4,3-c]pyridin-3-yl]-2′-chloro-biphenyl-3-carboxylic acid [1-(5-methyl-1H-benzoimidazol-2-yl)-ethyl]-amide] | 37 nM
CS(=O)(=O)N1CCc2c(c(-c3ccc(Cl)c(-c4cccc(C(=O)NCc5nc6ccccc6s5)c4)c3)nn2CCCN2CCC(O)C2)C1 (stereo not drawn) [Example 30, 2′-Chloro-5′-{1-[3-(3-hydroxy-pyrrolidin-1-yl)-propyl]-5-methanesulfonyl-4,5,6,7-tetrahydro-1H-pyrazolo[4,3-c]pyridin-3-yl}-biphenyl-3-carboxylic acid (benzothiazol-2-ylmethyl)-amide] | 325 nM
COc1ccc(CNC(=O)c2cccc(-c3cc(-c4nn(CCCN5CCCC5)c5c4CN(C(C)=O)CC5)ccc3Cl)c2)cc1 [Example 41, 5′-[5-Acetyl-1-(3-pyrrolidin-1-yl-propyl)-4,5,6,7-tetrahydro-1H-pyrazolo[4,3-c]pyridin-3-yl]-2′-chloro-biphenyl-3-carboxylic acid 4-methoxy-benzylamide] | 430 nM
Cc1ccc2[nH]c(C(C)NC(=O)c3cccc(-c4cc(-c5nn(CCCN6CCC(N7CCCC7=O)CC6)c6c5CN(S(C)(=O)=O)CC6)ccc4Cl)c3)nc2c1 (stereo not drawn) [Example 35, 2′-Chloro-5′-(5-methanesulfonyl-1-{3-[4-(2-oxo-pyrrolidin-1-yl)-piperidin-1-yl]-propyl}-4,5,6,7-tetrahydro-1H-pyrazolo[4,3-c]pyridin-3-yl)-biphenyl-3-carboxylic acid [1-(5-methyl-1H-benzoimidazol-2-yl)-ethyl]-amide] | 123 nM
CC(C)c1ccc(NCCNC(=O)c2cccc(-c3cc(-c4nn(CCCN5CCC(O)C5)c5c4CNCC5)ccc3Cl)c2)cc1 (stereo not drawn) [Example 43, 2′-Chloro-5′-{1-[3-(3-hydroxy-pyrrolidin-1-yl)-propyl]-4,5,6,7-tetrahydro-1H-pyrazolo[4,3-c]pyridin-3-yl}-biphenyl-3-carboxylic acid [2-(4-isopropyl-phenylamino)-ethyl]-amide] | 48.5 nM
CCC(NC(=O)c1cccc(-c2cc(-c3nn(CCCN4CCCC4)c4c3CN(S(C)(=O)=O)CC4)ccc2Cl)c1)c1nc2cc(C)ccc2[nH]1 (stereo not drawn) [Example 17, 2′-Chloro-5′-[5-methanesulfonyl-1-(3-pyrrolidin-1-yl-propyl)-4,5,6,7-tetrahydro-1H-pyrazolo[4,3-c]pyridin-3-yl]-biphenyl-3-carboxylic acid [1-(5-methyl-1H-benzoimidazol-2-yl)-propyl]-amide] | 125 nM
CC(=O)N1CCc2c(c(-c3ccc(Cl)c(-c4cccc(C(=O)NCCN5CCc6cc(C)ccc65)c4)c3)nn2CCCN2CCCC2)C1 [Example 40, 5′-[5-Acetyl-1-(3-pyrrolidin-1-yl-propyl)-4,5,6,7-tetrahydro-1H-pyrazolo[4,3-c]pyridin-3-yl]-2′-chloro-biphenyl-3-carboxylic acid [2-(5-methyl-2,3-dihydro-indol-1-yl)-ethyl]-amide] | 228 nM
COc1ccc(NC(=O)CNC(=O)c2cccc(-c3cc(-c4nn(CCCN5CCCC5)c5c4CN(S(C)(=O)=O)CC5)ccc3Cl)c2)cc1 [Example 26, 2′-Chloro-5′-[5-methanesulfonyl-1-(3-pyrrolidin-1-yl-propyl)-4,5,6,7-tetrahydro-1H-pyrazolo[4,3-c]pyridin-3-yl]-biphenyl-3-carboxylic acid [(4-methoxy-phenylcarbamoyl)-methyl]-amide] | 712 nM
CS(=O)(=O)N1CCc2c(c(-c3ccc(Cl)c(-c4cccc(C(=O)NCc5nccs5)c4)c3)nn2CCCN2CCCC2)C1 [Example 19, 2′-Chloro-5′-[5-methanesulfonyl-1-(3-pyrrolidin-1-yl-propyl)-4,5,6,7-tetrahydro-1H-pyrazolo[4,3-c]pyridin-3-yl]-biphenyl-3-carboxylic acid (thiazol-2-ylmethyl)-amide] | 269 nM
C[C@@H](NC(=O)c1cccc(-c2cc(-c3nn(CCCN4CCCC4)c4c3CN(S(C)(=O)=O)CC4)ccc2Cl)c1)c1nc(-c2ccccc2)cs1 [Example 24, (R)-2′-Chloro-5′-[5-methanesulfonyl-1-(3-pyrrolidin-1-yl-propyl)-4,5,6,7-tetrahydro-1H-pyrazolo[4,3-c]pyridin-3-yl]-biphenyl-3-carboxylic acid [1-(4-phenyl-thiazol-2-yl)-ethyl]-amide] | 175 nM
CS(=O)(=O)N1CCc2c(c(-c3ccc(Cl)c(-c4cccc(C(=O)NCc5ncco5)c4)c3)nn2CCCN2CCC(N3CCCC3=O)CC2)C1 [Example 32, 2′-Chloro-5′-(5-methanesulfonyl-1-{3-[4-(2-oxo-pyrrolidin-1-yl)-piperidin-1-yl]-propyl}-4,5,6,7-tetrahydro-1H-pyrazolo[4,3-c]pyridin-3-yl)-biphenyl-3-carboxylic acid (oxazol-2-ylmethyl)-amide] | 264 nM
Cc1ccc(NCCNC(=O)c2cccc(-c3cc(-c4nn(CCCN5CCCC5)c5c4CN(S(C)(=O)=O)CC5)ccc3Cl)c2)cc1 [Example 2, 2′-Chloro-5′-[5-methanesulfonyl-1-(3-pyrrolidin-1-yl-propyl)-4,5,6,7-tetrahydro-1H-pyrazolo[4,3-c]pyridin-3-yl]-biphenyl-3-carboxylic acid (2-p-tolylamino-ethyl)-amide] | 345 nM
COc1ccc(NCCNC(=O)c2cccc(-c3cc(-c4nn(CCCN5CCCC5)c5c4CN(S(C)(=O)=O)CC5)ccc3Cl)c2)cn1 [Example 6, 2′-Chloro-5′-[5-methanesulfonyl-1-(3-pyrrolidin-1-yl-propyl)-4,5,6,7-tetrahydro-1H-pyrazolo[4,3-c]pyridin-3-yl]-biphenyl-3-carboxylic acid [2-(6-methoxy-pyridin-3-ylamino)-ethyl]-amide] | 317 nM
CS(=O)(=O)N1CCc2c(c(-c3ccc(Cl)c(-c4cccc(C(=O)NCc5nc6cc(Cl)ccc6[nH]5)c4)c3)nn2CCCN2CCCC2)C1 [Example 21, 2′-Chloro-5′-[5-methanesulfonyl-1-(3-pyrrolidin-1-yl-propyl)-4,5,6,7-tetrahydro-1H-pyrazolo[4,3-c]pyridin-3-yl]-biphenyl-3-carboxylic acid (5-chloro-1H-benzoimidazol-2-ylmethyl)-amide] | 70.3 nM
CS(=O)(=O)N1CCc2c(c(-c3ccc(Cl)c(-c4cccc(C(=O)NCc5cccs5)c4)c3)nn2CCCN2CCCC2)C1 [Example 14, 2′-Chloro-5′-[5-methanesulfonyl-1-(3-pyrrolidin-1-yl-propyl)-4,5,6,7-tetrahydro-1H-pyrazolo[4,3-c]pyridin-3-yl]-biphenyl-3-carboxylic acid (thiophen-2-ylmethyl)-amide] | 350 nM
CC(C)(C)c1csc(CNC(=O)c2cccc(-c3cc(-c4nn(CCCN5CCCC5)c5c4CN(S(C)(=O)=O)CC5)ccc3Cl)c2)n1 [Example 22, 2′-Chloro-5′-[5-methanesulfonyl-1-(3-pyrrolidin-1-yl-propyl)-4,5,6,7-tetrahydro-1H-pyrazolo[4,3-c]pyridin-3-yl]-biphenyl-3-carboxylic acid (4-tert-butyl-thiazol-2-ylmethyl)-amide] | 75.4 nM
COc1ccc(NCCNC(=O)c2cccc(-c3cc(-c4nn(CCCN5CCCC5)c5c4CN(S(C)(=O)=O)CC5)ccc3Cl)c2)cc1 [Example 1, 2′-Chloro-5′-[5-methanesulfonyl-1-(3-pyrrolidin-1-yl-propyl)-4,5,6,7-tetrahydro-1H-pyrazolo[4,3-c]pyridin-3-yl]-biphenyl-3-carboxylic acid [2-(4-methoxy-phenylamino)-ethyl]-amide] | 85 nM
COc1ccc(NCCNC(=O)c2cccc(-c3cc(-c4nn(CCCN5CCC(N6CCCC6=O)CC5)c5c4CN(S(C)(=O)=O)CC5)ccc3Cl)c2)cc1 [Example 31, 2′-Chloro-5′-(5-methanesulfonyl-1-{3-[4-(2-oxo-pyrrolidin-1-yl)-piperidin-1-yl]-propyl}-4,5,6,7-tetrahydro-1H-pyrazolo[4,3-c]pyridin-3-yl)-biphenyl-3-carboxylic acid [2-(4-methoxy-phenylamino)-ethyl]-amide] | 27.3 nM
COc1ccc(NCCNC(=O)c2cccc(-c3cc(-c4nn(CCCN5CCCC5)c5c4CN(S(C)(=O)=O)CC5)ccc3Cl)c2)cc1Cl [Example 4, 2′-Chloro-5′-[5-methanesulfonyl-1-(3-pyrrolidin-1-yl-propyl)-4,5,6,7-tetrahydro-1H-pyrazolo[4,3-c]pyridin-3-yl]-biphenyl-3-carboxylic acid [2-(3-chloro-4-methoxy-phenylamino)-ethyl]-amide] | 253 nM
